Results from ChEMBL document CHEMBL1147560, “Thioxanthene-derived analogs as sigma(1) receptor ligands” (Bioorg Med Chem Lett, 2004).

Key:
[1] = molecular target: T1, Sigma non-opioid intracellular receptor 1 (Homo sapiens, UniProt Q99720); test: Binding affinity for Sigma receptor type 1,using [3H](+)-pentazocine as radioligand
[2] = molecular target: Sigma 2 receptor; test: Binding affinity of compound was measured towards Sigma receptor type 2 by using [3H]ditolylguanidine as radioligand; parameters: species or system Cavia porcellus
[3] = molecular target: T1, Sigma non-opioid intracellular receptor 1; test: Selectivity for sigma 2 compared to sigma 1 receptor
[4] = Binding affinity for Sigma receptor type 1,using [3H](+)-pentazocine as radioligand

T1 sequence (Q99720 whole entry): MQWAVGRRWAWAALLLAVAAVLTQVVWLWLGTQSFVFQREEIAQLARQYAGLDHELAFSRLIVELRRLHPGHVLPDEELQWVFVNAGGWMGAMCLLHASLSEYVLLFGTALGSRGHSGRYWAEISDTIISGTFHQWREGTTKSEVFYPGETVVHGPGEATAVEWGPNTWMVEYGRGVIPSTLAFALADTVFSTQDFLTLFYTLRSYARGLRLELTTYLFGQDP

SMILES | Ki [1] [nM] | Ki [2] [nM] | Selectivity [3] | Ki [4] [nM] | Selectivity ([3]; Cavia porcellus)
CN1CCN(CC/C=C\c2ccccc2)CC1 | 29 | 2540 | 88 |  | 
CCCC(C(=O)OCCN(CC)CC)(c1ccccc1)c1ccccc1 [PROADIFEN] |  | 1100 |  |  | 
CC1CCN(CCC=C2c3ccccc3Sc3ccccc32)CC1 | 0.8 | 26 | 33 |  | 
CN1CCN(CCCCc2ccccc2)CC1 | 20 | 900 | 45 |  | 
CC1CCN(CCCCC(c2ccccc2)c2ccccc2)CC1 | 0.09 | 17 | 189 |  | 
CN(CCCCC(c1ccccc1)c1ccccc1)CCc1ccccc1 | 0.48 | 32 | 67 |  | 
CN(CCCC=C(c1ccccc1)c1ccccc1)CCc1ccccc1 | 0.89 | 41 | 46 |  | 
CCN(CC)CCCCC(O)(c1ccccc1)c1ccccc1 | 12 | 800 | 67 |  | 
CC1CCN(CCCC=C(c2ccccc2)c2ccccc2)CC1 |  | 25 |  |  | 
CC1CCN(CCC=C(c2ccccc2)c2ccccc2)CC1 | 1.9 | 28 | 15 |  | 
C(CCCNCCc1ccccc1)=C(c1ccccc1)c1ccccc1 |  | 142 |  |  | 
CN(CCCCCc1ccccc1)CCc1ccccc1 |  |  |  | 0.25 | 
c1ccc(CCNCCCCC(c2ccccc2)c2ccccc2)cc1 | 0.66 | 100 |  |  | 152
CC1CCN(CCCC(c2ccccc2)c2ccccc2)CC1 | 1.1 | 28 | 25 |  | 
CCN(CC)CCCCC(c1ccccc1)c1ccccc1 | 1.4 | 51 | 36 |  | 
CC1CCN(CCCCCc2ccccc2)CC1 | 0.07 |  |  |  | 
CN1CCN(CC/C=C/c2ccccc2)CC1 | 29 | 1300 | 45 |  | 
CCN(CC)CCOC(=O)C(O)(c1ccccc1)c1ccccc1 [BENACTYZINE] | > 1000 |  |  |  | 
